Results: ChEMBL document CHEMBL3621071, “Novel isoniazid-amidoether derivatives: Synthesis, characterization and antimycobacterial activity evaluation” (Medchemcomm, 2015)
Converted amounts (≈) assume the structure as drawn. The source made the active and inactive calls. The rule behind the calls is not given here.

What was measured:
[1] = test system: Mycobacterium tuberculosis; assay: Antimycobacterial activity against Mycobacterium tuberculosis H37Rv ATCC 27294 assessed as inhibition of bacterial growth incubated for 14 days by inverted plate reader based macroscopy; format: functional; conditions: H37Rv ATCC 27294, 336 h
[2] = test system: THP-1; assay: Cytotoxic activity against human THP1 cells; format: cell-based
[3] = test system: Mycobacterium tuberculosis; assay: Antimycobacterial activity against Mycobacterium tuberculosis H37Rv infected in Balb/c mouse assessed as reduction in spleen bacterial load at 10 mg/kg, po dosed once daily 5 days per week for 10 weeks; format: functional, organism-based
[4] = test system: Mycobacterium tuberculosis; assay: Antimycobacterial activity against Mycobacterium tuberculosis H37Rv infected in Balb/c mouse assessed as reduction in lung bacterial load at 10 mg/kg, po dosed once daily 5 days per week for 10; format: functional, organism-based
[5] = test system: Mycobacterium tuberculosis; assay: Antimycobacterial activity against Mycobacterium tuberculosis H37Rv infected in Balb/c mouse assessed as reduction in spleen bacterial load at 10 mg/kg, po dosed once daily 5 days per week for 3 weeks; format: functional
[6] = test system: Mycobacterium tuberculosis; assay: Antimycobacterial activity against Mycobacterium tuberculosis H37Rv infected in Balb/c mouse assessed as reduction in lung bacterial load at 10 mg/kg, po dosed once daily 5 days per week for 3 weeks; format: functional
[7] = test system: Mycobacterium tuberculosis; assay: Antimycobacterial activity against Mycobacterium tuberculosis H37Rv infected in Balb/c mouse assessed as reduction in lung bacterial load at 10 mg/kg, po dosed once daily 5 days per week for 6; format: functional
[8] = test system: Mycobacterium tuberculosis; assay: Antimycobacterial activity against Mycobacterium tuberculosis H37Rv infected in Balb/c mouse assessed as reduction in spleen bacterial load at 10 mg/kg, po dosed once daily 5 days per week for 6 weeks; format: functional
[9] = test system: Mycobacterium tuberculosis; assay: Antimycobacterial activity against Mycobacterium tuberculosis H37Rv infected in Balb/c mouse assessed as reduction in lung bacterial load at 25 mg/kg, po dosed once daily 5 days per week for 3 weeks; format: functional
[10] = test system: Mycobacterium tuberculosis; assay: Antimycobacterial activity against Mycobacterium tuberculosis H37Rv infected in Balb/c mouse assessed as reduction in spleen bacterial load at 25 mg/kg, po dosed once daily 5 days per week for 3 weeks; format: functional
[11] = test system: Mycobacterium tuberculosis; assay: Antimycobacterial activity against Mycobacterium tuberculosis H37Rv infected in Balb/c mouse assessed as reduction in spleen bacterial load at 25 mg/kg, po dosed once daily 5 days per week for 6 weeks; format: functional, organism-based
[12] = test system: Mycobacterium tuberculosis; assay: Antimycobacterial activity against Mycobacterium tuberculosis H37Rv infected in Balb/c mouse assessed as reduction in lung bacterial load at 25 mg/kg, po dosed once daily 5 days per week for 6 weeks; format: functional
[13] = test system: Mycobacterium tuberculosis; assay: Antimycobacterial activity against Mycobacterium tuberculosis H37Rv infected in Balb/c mouse assessed as reduction in lung bacterial load at 25 mg/kg, po dosed once daily 5 days per week for 10 weeks; format: functional
[14] = test system: Mycobacterium tuberculosis; assay: Antimycobacterial activity against Mycobacterium tuberculosis H37Rv infected in Balb/c mouse assessed as reduction in spleen bacterial load at 25 mg/kg, po dosed once daily 5 days per week for 10 weeks; format: functional
[15] = test system: Mycobacterium tuberculosis; assay: Antimycobacterial activity against Mycobacterium tuberculosis H37Rv infected in Balb/c mouse assessed as reduction in spleen bacterial load at 100 mg/kg, po dosed once daily 5 days per week for 3 weeks; format: functional
[16] = test system: Mycobacterium tuberculosis; assay: Antimycobacterial activity against Mycobacterium tuberculosis H37Rv infected in Balb/c mouse assessed as reduction in spleen bacterial load at 50 mg/kg, po dosed once daily 5 days per week for 10 weeks; format: functional
[17] = test system: Mycobacterium tuberculosis; assay: Antimycobacterial activity against Mycobacterium tuberculosis H37Rv infected in Balb/c mouse assessed as reduction in lung bacterial load at 25 mg/kg, po dosed once daily 5 days per week for 3 to 10 weeks; format: functional, organism-based
[18] = test system: Mycobacterium tuberculosis; assay: Antimycobacterial activity against Mycobacterium tuberculosis H37Rv infected in Balb/c mouse assessed as reduction in lung bacterial load at 50 mg/kg, po dosed once daily 5 days per week for 3 to 10 weeks; format: functional, organism-based
[19] = test system: Mycobacterium tuberculosis; assay: Antimycobacterial activity against Mycobacterium tuberculosis H37Rv infected in Balb/c mouse assessed as reduction in spleen bacterial load at 50 mg/kg, po dosed once daily 5 days per week for 6 weeks; format: functional
[20] = test system: Mycobacterium tuberculosis; assay: Antimycobacterial activity against Mycobacterium tuberculosis H37Rv infected in Balb/c mouse assessed as reduction in spleen bacterial load at 50 mg/kg, po dosed once daily 5 days per week for 3 weeks; format: functional
[21] = test system: Mycobacterium tuberculosis; assay: Antimycobacterial activity against Mycobacterium tuberculosis H37Rv infected in Balb/c mouse assessed as reduction in spleen bacterial load at 100 mg/kg, po dosed once daily 5 days per week for 10 weeks; format: functional
[22] = test system: Mycobacterium tuberculosis; assay: Antimycobacterial activity against Mycobacterium tuberculosis H37Rv infected in Balb/c mouse assessed as reduction in lung bacterial load at 100 mg/kg, po dosed once daily 5 days per week for 3 to 10 weeks; format: functional, organism-based

COc1ccc(CNC(=O)COc2ccc(/C=N/NC(=O)c3ccncc3)cc2)cc1
MIC99 [1]: 0.39 µM (≈ 0.163 µg/mL)
Activity [2]: > 50 µM

O=C(COc1ccc(/C=N/NC(=O)c2ccncc2)cc1)Nc1ccccc1Br
MIC99 [1]: 0.78 µM (≈ 0.354 µg/mL)
Activity [2]: > 50 µM

CC(C)c1ccc(NC(=O)COc2ccc(/C=N/NC(=O)c3ccncc3)cc2)cc1
MIC99 [1]: 0.39 µM (≈ 0.162 µg/mL)
Activity [2]: > 50 µM

O=C(COc1ccc(/C=N/NC(=O)c2ccncc2)cc1)Nc1cccc(Br)c1
MIC99 [1]: 0.78 µM (≈ 0.354 µg/mL)
Activity [2]: > 50 µM

O=C(COc1ccc(/C=N/NC(=O)c2ccncc2)cc1)Nc1ccc(Cl)cc1
MIC99 [1]: 0.39 µM (≈ 0.159 µg/mL)
Activity [2]: > 50 µM

COc1ccc(NC(=O)COc2ccc(/C=N/NC(=O)c3ccncc3)cc2)cc1
MIC99 [1]: 0.39 µM (≈ 0.158 µg/mL)
Activity [2]: > 50 µM

O=C(COc1ccc(/C=N/NC(=O)c2ccncc2)cc1)Nc1cccc(F)c1
MIC99 [1]: 0.78 µM (≈ 0.306 µg/mL)
Activity [2]: > 50 µM

O=C(COc1ccc(/C=N/NC(=O)c2ccncc2)cc1)Nc1ccc(Br)cc1
MIC99 [1]: 0.78 µM (≈ 0.354 µg/mL)
Activity [2]: > 50 µM

CO[C@H]1/C=C/O[C@@]2(C)Oc3c(C)c(O)c4c(O)c(c(/C=N/N5CCN(C)CC5)c(O)c4c3C2=O)NC(=O)/C(C)=C\C=C\[C@H](C)[C@H](O)[C@@H](C)[C@@H](O)[C@@H](C)[C@H](OC(C)=O)[C@@H]1C [RIFAMPIN]
Activity [3]: Active
Activity [4]: Active
Activity [5]: 1.76 log10CFU
Activity [6]: 1.93 log10CFU
Activity [7]: 2.8 log10CFU
Activity [8]: 3.31 log10CFU

O=C(COc1ccc(/C=N/NC(=O)c2ccncc2)cc1)Nc1cccnc1
MIC99 [1]: 0.39 µM (≈ 0.146 µg/mL)
Activity [2]: > 50 µM

Cc1ccc(CNC(=O)COc2ccc(/C=N/NC(=O)c3ccncc3)cc2)cc1
MIC99 [1]: 0.39 µM (≈ 0.157 µg/mL)
Activity [2]: > 50 µM

NNC(=O)c1ccncc1 [ISONIAZID]
MIC99 [1]: 0.39 µM (≈ 0.0535 µg/mL)
Activity [9]: 1.22 log10CFU
Activity [10]: 2.66 log10CFU
Activity [11]: Active
Activity [12]: 2.59 log10CFU
Activity [13]: 3.38 log10CFU
Activity [14]: Active

O=C(COc1ccc(/C=N/NC(=O)c2ccncc2)cc1)NCCc1ccccc1
MIC99 [1]: 0.78 µM (≈ 0.314 µg/mL)
Activity [2]: > 50 µM

O=C(COc1ccc(/C=N/NC(=O)c2ccncc2)cc1)Nc1ccccc1Cl
MIC99 [1]: 0.78 µM (≈ 0.319 µg/mL)
Activity [2]: > 50 µM

CCc1ccc(NC(=O)COc2ccc(/C=N/NC(=O)c3ccncc3)cc2)cc1
MIC99 [1]: 0.39 µM (≈ 0.157 µg/mL)
Activity [2]: > 50 µM

O=C(COc1ccc(/C=N/NC(=O)c2ccncc2)cc1)Nc1ccccc1
MIC99 [1]: 0.78 µM (≈ 0.292 µg/mL)
Activity [2]: > 50 µM

O=C(COc1ccc(/C=N/NC(=O)c2ccncc2)cc1)Nc1ccccc1F
MIC99 [1]: 0.78 µM (≈ 0.306 µg/mL)
Activity [2]: > 50 µM

O=C(COc1ccc(/C=N/NC(=O)c2ccncc2)cc1)Nc1cccc2ccccc12
MIC99 [1]: 1.56 µM (≈ 0.662 µg/mL)
Activity [2]: > 50 µM

Cc1ccc(NC(=O)COc2ccc(/C=N/NC(=O)c3ccncc3)cc2)cc1
Activity [15]: 1.77 log10CFU
MIC99 [1]: 0.39 µM (≈ 0.151 µg/mL)
Activity [10]: 1.19 log10CFU
Activity [16]: 2.14 log10CFU
Activity [17]: inactive
Activity [18]: inactive
Activity [2]: > 50 µM
Activity [19]: 2.28 log10CFU
Activity [20]: 1.4 log10CFU
Activity [21]: 3.11 log10CFU
Activity [22]: inactive
Activity [14]: 1.23 log10CFU

O=C(COc1ccc(/C=N/NC(=O)c2ccncc2)cc1)Nc1ccccn1
MIC99 [1]: 0.78 µM (≈ 0.293 µg/mL)
Activity [2]: > 50 µM

O=C(COc1ccc(/C=N/NC(=O)c2ccncc2)cc1)NCc1ccccc1
MIC99 [1]: 0.78 µM (≈ 0.303 µg/mL)
Activity [2]: > 50 µM

O=C(COc1ccc(/C=N/NC(=O)c2ccncc2)cc1)Nc1cccc(Cl)c1
MIC99 [1]: 0.78 µM (≈ 0.319 µg/mL)
Activity [2]: > 50 µM

O=C(COc1ccc(/C=N/NC(=O)c2ccncc2)cc1)Nc1ccc(F)cc1
MIC99 [1]: 0.78 µM (≈ 0.306 µg/mL)
Activity [2]: > 50 µM

O=C(COc1ccc(/C=N/NC(=O)c2ccncc2)cc1)Nc1ccc([N+](=O)[O-])cc1
MIC99 [1]: 1.56 µM (≈ 0.654 µg/mL)
Activity [2]: > 50 µM
